What was measured:
SMARCA2 = SMARCA2 (Homo sapiens, UniProt P51531); assay: BROMOscan ligand-binding assay; conditions: KD, BROMOscan Gene Symbol SMARCA2
Source text: (§2) BROMOscan is a binding assay based on the well-known KINOMEscan technology. This assay measures the binding of a DNA-tagged bromodomain to an immobilized BRD ligand. If an inhibitor is present, it will compete with the bromodomain binding to the immobilized ligand, resulting in reduction of a quantitative PCR (qPCR) signal in a dose-dependent manner.

BRD8(2) = BRD8(2) (Homo sapiens, UniProt Q9H0E9); assay: BROMOscan ligand-binding assay; conditions: KD, BROMOscan Gene Symbol BRD8(2)
Source text: as §2

WDR9(2) = WDR9(2) (Homo sapiens, UniProt Q9NSI6); assay: BROMOscan ligand-binding assay
Source text: as §2

BAZ1B = target: T1, BAZ1B (Homo sapiens, UniProt Q9UIG0); assay: BROMOscan ligand-binding assay; conditions: KD, BROMOscan Gene Symbol BAZ1B
T1 sequence (Q9UIG0 1339-1443 limits assumed): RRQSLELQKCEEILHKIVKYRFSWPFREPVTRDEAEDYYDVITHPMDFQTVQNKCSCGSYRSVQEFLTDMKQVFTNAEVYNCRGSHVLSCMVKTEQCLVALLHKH
Source text: as §2

TRIM33(PHD,BRD) = target: T2, TRIM33(PHD,BRD) (Homo sapiens, UniProt Q9UPN9); assay: BROMOscan ligand-binding assay
T2 sequence (Q9UPN9 882-1087 limits assumed): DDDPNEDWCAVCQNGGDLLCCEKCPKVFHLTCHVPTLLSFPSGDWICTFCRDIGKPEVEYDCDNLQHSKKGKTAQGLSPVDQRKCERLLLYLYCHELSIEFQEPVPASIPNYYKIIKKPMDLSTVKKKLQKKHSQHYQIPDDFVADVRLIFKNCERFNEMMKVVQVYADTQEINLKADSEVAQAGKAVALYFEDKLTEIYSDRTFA
Source text: as §2

BRD8(1) = BRD8(1) (Homo sapiens, UniProt Q9H0E9); assay: BROMOscan ligand-binding assay; conditions: KD, BROMOscan Gene Symbol BRD8(1)
Chain of BRD8(1) (Q9H0E9 706-811 limits assumed): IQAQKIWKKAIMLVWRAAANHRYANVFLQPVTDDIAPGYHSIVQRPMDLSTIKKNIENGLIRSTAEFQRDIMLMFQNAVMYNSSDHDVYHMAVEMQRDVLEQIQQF
Source text: as §2

GCN5L2 = target: T3, GCN5L2 (Homo sapiens, UniProt Q92830); assay: BROMOscan ligand-binding assay; conditions: KD, BROMOscan Gene Symbol GCN5L2
T3 sequence (Q92830 728-832 limits assumed): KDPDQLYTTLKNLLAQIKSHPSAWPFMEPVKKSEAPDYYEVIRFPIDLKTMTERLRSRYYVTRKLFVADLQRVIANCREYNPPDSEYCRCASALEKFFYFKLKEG
Source text: as §2

EP300 = target: T4, EP300 (Homo sapiens, UniProt Q09472); assay: BROMOscan ligand-binding assay; conditions: KD, BROMOscan Gene Symbol EP300
T4 sequence (Q09472 1049-1156 limits assumed): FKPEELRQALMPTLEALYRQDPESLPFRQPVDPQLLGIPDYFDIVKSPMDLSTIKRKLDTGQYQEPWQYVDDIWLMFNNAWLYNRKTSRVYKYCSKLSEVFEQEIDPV
Source text: as §2

C2C12 myoblast cells = assay: Gene-expression analysis (microarray); format: cell-based, mouse; conditions: 12 h; 500 nM (JQ1, LP-99), 2 μM (GSK2801, BAZ2-ICR, BSP)
Protocol: Total RNA was extracted using the PureLink^TM RNA mini kit (Thermo Fisher Scientific, 12183018A) as per the manufacturer’s protocol.
RNA samples were processed for oligonucleotide microarray profiling utilizing the Affymetrix Clariom^TM S Assay HT mouse. Quality controls were carried out in R (v.3.5.1) and Bioconductor[71] (v.3.7) using the arrayQualityMetrics package (v.3.36.0) taking into account array intensity distributions, distance between arrays, and variance mean dependence. Principal component analysis was used to decide which arrays to process together. After quality control, arrays were corrected for background, normalized, and log2-transformed together using the rma function of the oligo package (v.1.44)[73] in R/Bioconductor. Probes with small variance across samples were filtered out using the genefilter (v.1.62) package, employing the nsFilter function and an interquartile range cut-off of 0.28 (or >log(1.2), determined by the midpoint of the shortest interval containing half of the data). This reduced the number of probes of the Clariom^TM S array from 29,129 to 14,538.
Differential expression analysis was conducted using the limma package (v.3.36.2)[74], employing a linear model followed by empirical Bayesian analysis to determine differential expression between not-treated and treated samples.

BRPF1 = target: T5, BRPF1 (Homo sapiens, UniProt P55201); assay: BROMOscan ligand-binding assay; conditions: KD, BROMOscan Gene Symbol BRPF1
T5 sequence (P55201 628-732 limits assumed): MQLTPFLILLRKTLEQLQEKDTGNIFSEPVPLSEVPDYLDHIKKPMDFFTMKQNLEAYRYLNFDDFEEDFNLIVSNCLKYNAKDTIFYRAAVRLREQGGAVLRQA
Source text: as §2

BAZ2B = target: T6, BAZ2B (Homo sapiens, UniProt Q9UIF8); assay: BROMOscan ligand-binding assay; conditions: KD, BROMOscan Gene Symbol BAZ2B
T6 sequence (Q9UIF8 2060-2164 limits assumed): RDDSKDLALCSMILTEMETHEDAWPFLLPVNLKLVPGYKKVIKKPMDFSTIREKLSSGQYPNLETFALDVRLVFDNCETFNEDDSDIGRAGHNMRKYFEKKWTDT
Source text: as §2

ATAD2B = target: T7, ATAD2B (Homo sapiens, UniProt Q9ULI0); assay: BROMOscan ligand-binding assay; conditions: KD, BROMOscan Gene Symbol ATAD2B
T7 sequence (Q9ULI0 951-1066 limits assumed): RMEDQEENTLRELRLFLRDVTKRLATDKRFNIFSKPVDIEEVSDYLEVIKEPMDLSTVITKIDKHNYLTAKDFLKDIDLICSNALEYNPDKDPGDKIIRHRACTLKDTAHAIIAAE
Source text: as §2

ATAD2A = target: T8, ATAD2A (Homo sapiens, UniProt Q6PL18); assay: BROMOscan ligand-binding assay; conditions: KD, BROMOscan Gene Symbol ATAD2A
T8 sequence (Q6PL18 980-1092 limits assumed): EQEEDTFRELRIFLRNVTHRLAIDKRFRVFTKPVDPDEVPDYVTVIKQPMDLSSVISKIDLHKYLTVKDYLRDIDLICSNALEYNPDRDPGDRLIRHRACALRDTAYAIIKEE
Source text: as §2

TAF1L(2) = target: T9, TAF1L(2) (Homo sapiens, UniProt Q8IZX4); assay: Temperature shift assay (bromodomains); format: binding; conditions: compared to ITC KD
T9 construct: purchased DiscoverX BROMOscan (bromodomains); SGC in-house methyltransferase panel
T9 sequence (Q8IZX4 1523-1654 limits assumed): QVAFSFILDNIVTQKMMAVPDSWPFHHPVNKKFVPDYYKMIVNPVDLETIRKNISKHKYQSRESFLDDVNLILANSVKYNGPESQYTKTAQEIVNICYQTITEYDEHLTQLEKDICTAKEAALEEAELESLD
Protocol: (§1) Temperature shift assays have been described by Fedorov et al.[46]. Recombinant protein domains (bromodomain or kinases) at a concentration of 2 μM in 10 mM HEPES, pH 7.5, and 500 mM NaCl were mixed with 10 μM of chemical probes. Temperature-dependent protein unfolding profiles were measured using a Real-Time PCR Mx3005p machine (Stratagene).

BRD9 = target: T10, BRD9 (Homo sapiens, UniProt Q9H8M2); assay: Temperature shift assay (bromodomains); format: binding; conditions: compared to ITC KD
T10 construct: purchased DiscoverX BROMOscan (bromodomains); SGC in-house methyltransferase panel
T10 sequence (Q9H8M2 134-239): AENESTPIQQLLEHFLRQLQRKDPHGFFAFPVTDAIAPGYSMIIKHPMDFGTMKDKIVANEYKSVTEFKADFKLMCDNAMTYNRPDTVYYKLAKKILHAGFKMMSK
Protocol: as §1

CBP = target: T11, CBP (Homo sapiens, UniProt Q92793); assay: Temperature shift assay (bromodomains); format: binding; conditions: compared to ITC KD
T11 construct: Recombinant protein domains (bromodomain or kinases) at a concentration of 2 μM
T11 sequence (Q92793 1085-1192 limits assumed): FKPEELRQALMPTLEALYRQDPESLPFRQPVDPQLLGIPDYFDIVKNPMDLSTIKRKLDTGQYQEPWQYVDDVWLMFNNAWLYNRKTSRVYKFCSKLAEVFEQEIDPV
Protocol: as §1

SMARCA2(iso.A) = SMARCA2(iso.A) (Homo sapiens, UniProt P51531); assay: BROMOscan ligand-binding assay; conditions: KD, BROMOscan Gene Symbol SMARCA2(iso.A)
Chain of SMARCA2(iso.A) (P51531 1378-1506 limits assumed): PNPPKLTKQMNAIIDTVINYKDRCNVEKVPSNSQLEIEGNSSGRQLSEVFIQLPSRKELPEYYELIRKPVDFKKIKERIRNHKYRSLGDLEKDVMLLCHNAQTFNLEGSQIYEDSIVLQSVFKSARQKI
Source text: as §2

[1] = KD (BROMOscan), sheet prints no unit (nM)

Chain of WDR9(2) (Q9NSI6 1313-1418 limits assumed): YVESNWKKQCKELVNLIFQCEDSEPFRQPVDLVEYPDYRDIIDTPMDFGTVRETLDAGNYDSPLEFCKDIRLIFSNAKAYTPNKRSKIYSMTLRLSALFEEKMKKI
Chain of SMARCA2 (P51531 1-1572 isoform P51531-2): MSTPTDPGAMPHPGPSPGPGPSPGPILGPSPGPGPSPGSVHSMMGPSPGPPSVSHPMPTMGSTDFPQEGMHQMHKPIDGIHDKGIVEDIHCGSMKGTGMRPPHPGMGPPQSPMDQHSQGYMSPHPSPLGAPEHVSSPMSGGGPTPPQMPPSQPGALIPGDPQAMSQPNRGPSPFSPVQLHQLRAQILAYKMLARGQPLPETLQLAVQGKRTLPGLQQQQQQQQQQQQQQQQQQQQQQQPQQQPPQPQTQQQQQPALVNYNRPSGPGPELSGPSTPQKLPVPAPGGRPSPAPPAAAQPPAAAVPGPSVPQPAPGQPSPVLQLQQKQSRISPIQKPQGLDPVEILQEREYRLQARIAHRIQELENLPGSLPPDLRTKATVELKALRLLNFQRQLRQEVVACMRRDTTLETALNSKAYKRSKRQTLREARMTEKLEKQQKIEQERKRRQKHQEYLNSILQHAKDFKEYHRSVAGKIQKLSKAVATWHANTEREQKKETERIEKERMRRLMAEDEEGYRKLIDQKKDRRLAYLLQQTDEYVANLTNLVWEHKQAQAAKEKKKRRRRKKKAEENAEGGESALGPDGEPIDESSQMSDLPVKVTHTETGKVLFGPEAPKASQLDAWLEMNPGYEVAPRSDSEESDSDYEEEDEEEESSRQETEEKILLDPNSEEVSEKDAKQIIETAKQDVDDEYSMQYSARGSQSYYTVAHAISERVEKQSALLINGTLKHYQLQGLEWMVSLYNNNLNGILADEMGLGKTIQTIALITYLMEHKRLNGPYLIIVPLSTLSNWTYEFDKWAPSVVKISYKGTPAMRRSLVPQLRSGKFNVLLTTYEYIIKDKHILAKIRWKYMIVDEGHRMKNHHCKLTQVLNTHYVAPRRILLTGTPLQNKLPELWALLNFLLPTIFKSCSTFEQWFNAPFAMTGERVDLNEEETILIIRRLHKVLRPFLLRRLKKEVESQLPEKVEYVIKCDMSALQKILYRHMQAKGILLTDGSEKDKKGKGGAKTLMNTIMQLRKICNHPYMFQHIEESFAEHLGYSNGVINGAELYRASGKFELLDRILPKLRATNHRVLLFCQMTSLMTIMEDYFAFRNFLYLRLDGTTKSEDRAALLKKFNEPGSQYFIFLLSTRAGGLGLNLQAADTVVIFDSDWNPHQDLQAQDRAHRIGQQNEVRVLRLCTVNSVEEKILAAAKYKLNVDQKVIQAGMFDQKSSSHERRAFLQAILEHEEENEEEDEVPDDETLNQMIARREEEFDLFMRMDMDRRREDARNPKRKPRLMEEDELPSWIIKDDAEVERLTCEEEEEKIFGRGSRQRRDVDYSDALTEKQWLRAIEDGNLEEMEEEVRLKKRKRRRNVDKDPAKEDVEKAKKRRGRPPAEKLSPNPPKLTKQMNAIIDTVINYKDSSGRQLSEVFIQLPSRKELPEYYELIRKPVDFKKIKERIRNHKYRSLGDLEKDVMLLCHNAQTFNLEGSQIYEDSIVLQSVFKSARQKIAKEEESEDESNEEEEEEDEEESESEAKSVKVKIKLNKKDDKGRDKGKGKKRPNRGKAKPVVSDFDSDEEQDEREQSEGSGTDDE
Chain of BRD8(2) (Q9H0E9 1099-1207 limits assumed): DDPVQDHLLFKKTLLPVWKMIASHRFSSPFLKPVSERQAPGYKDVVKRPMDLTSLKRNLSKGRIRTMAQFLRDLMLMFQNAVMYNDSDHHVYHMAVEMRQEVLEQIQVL

`CCOC(=O)Nc1cc(-c2ccc(C)c(NS(C)(=O)=O)c2)nn2c(C)nnc12` [Bromosporine] showed a Kd (SMARCA2) of 4.6 µM, a Kd (BRD8(2)) of 40 µM and a Kd (WDR9(2); [1]) greater than 30000 nM. It also gave a Kd (WDR9(2); KD, BROMOscan Gene Symbol WDR9(2)) greater than 50000 nM, a Kd (BAZ1B) of 38 µM and a Kd (TRIM33(PHD,BRD); [1]) greater than 30000 nM. For the same compound, the Kd (TRIM33(PHD,BRD); KD, BROMOscan Gene Symbol TRIM33(PHD,Bromo.)) was greater than 50000 nM, the Kd (BRD8(1)) was 28 µM and the Kd (GCN5L2) was 12 µM. The Kd (EP300) was 1.6 µM, the “changes in gene-expression levels” value (C2C12 myoblast cells) was “significant changes in gene-expression levels” and the Kd (BRPF1) was 0.6 µM. It also gave a Kd (BAZ2B) of 9.1 µM, a Kd (ATAD2B) of 30 µM and a Kd (ATAD2A) of 62 µM. The ΔTm (TAF1L(2)) was “only modest ΔTm”, the ΔTm (BRD9) was “only modest ΔTm” and the ΔTm (CBP) was “relatively large ΔTm”. For the same compound, the Kd (SMARCA2(iso.A)) was 6.2 µM.
